Test results taken from the CheMixHub viscosity set.
Where “and” joins values, the source holds several entries; their conditions need not be identical. Identical values can stand only once.

Assays:
[1] = xn = mol fraction of the nth substance listed

CCCCCCCCBr
101 kPa
Conditions | viscosity [mPa·s]
293.15 K | 1.544
303.55 K | 1.406
313.65 K | 1.204

CCOCCO
viscosity
Conditions | 293.15 K | 298.15 K | 303 K | 303.15 K | 308.15 K | 313 K | 313.15 K | 318.15 K | 323.15 K
100 kPa | – | 1.92 mPa·s | – | 1.682 mPa·s | – | – | – | – | –
101 kPa | 2.054 mPa·s | 1.814 mPa·s | 1.67 mPa·s | – | 1.487 mPa·s and 1.453 mPa·s and 1.469 mPa·s | 1.341 mPa·s | 1.336 mPa·s and 1.341 mPa·s and 1.368 mPa·s | 1.279 mPa·s | 1.065 mPa·s
101.3 kPa | 2.04 mPa·s | 1.819 mPa·s | – | 1.631 mPa·s | 1.402 mPa·s and 1.47 mPa·s | – | 1.332 mPa·s | 1.212 mPa·s | 1.108 mPa·s
101.33 kPa | – | – | – | – | – | – | – | 1.18 mPa·s | –

CNC(C)=O
viscosity
Conditions | 293.15 K | 298.15 K | 303.15 K | 303.18 K | 308.15 K | 313 K | 313.15 K | 318.15 K
101 kPa | 5.56 mPa·s | 4.771 mPa·s | 4.087 mPa·s and 3.822 mPa·s (2×) | 3.65 mPa·s | 3.535 mPa·s | 3.012 mPa·s | 3.078 mPa·s and 2.904 mPa·s | 2.764 mPa·s and 2.607 mPa·s
101.33 kPa | – | – | – | – | 3.38 mPa·s | – | 3.012 mPa·s and 3.004 mPa·s | 2.673 mPa·s

CNCCO
viscosity
Conditions | 293.15 K | 298.15 K | 303.15 K | 308.15 K | 313.15 K | 318.15 K | 323.15 K
101 kPa | – | – | 8.596 mPa·s | 7.075 mPa·s | 5.892 mPa·s | 4.949 mPa·s | 4.204 mPa·s
101.3 kPa | 13.23 mPa·s | 10.63 mPa·s | 8.612 mPa·s and 8.535 mPa·s | 7.07 mPa·s and 7.014 mPa·s | 5.883 mPa·s and 5.841 mPa·s | 4.953 mPa·s and 4.919 mPa·s | 4.214 mPa·s and 4.186 mPa·s
101.33 kPa | – | 12 mPa·s | 9.528 mPa·s | – | 6.396 mPa·s | – | –

Cn1cc[n+](CCCC#N)c1.O=S(=O)([O-])C(F)(F)F
101 kPa
Conditions | viscosity [mPa·s]
293.15 K | 811.5
298.15 K | 580.6
303.15 K | 422.5
308.15 K | 310.1
313.15 K | 230.6
318.15 K | 177.1
323.15 K | 141.4

N#C[C-](C#N)C#N.OCCC[n+]1ccccc1
101 kPa
Conditions | viscosity [mPa·s]
293.15 K | 126.3
298.15 K | 92.54
303.15 K | 69.51
308.15 K | 53.84
313.15 K | 42.53
318.15 K | 34.64
323.15 K | 28.1

CC(C)CCO + OCc1ccccc1
viscosity [mPa·s], [1], 101 kPa
Conditions | x1 = 0.0955 | x1 = 0.1908 | x1 = 0.2853 | x1 = 0.3812 | x1 = 0.4814 | x1 = 0.5847 | x1 = 0.6842 | x1 = 0.7879 | x1 = 0.8921
293.15 K | 6.28 | 6.27 | 6.26 | 6.18 | 6.07 | 5.86 | 5.58 | 5.23 | 4.86
298.15 K | 5.53 | 5.51 | 5.49 | 5.42 | 5.31 | 5.11 | 4.85 | 4.53 | 4.19
303.15 K | 4.64 | 4.63 | 4.62 | 4.58 | 4.49 | 4.37 | 4.19 | 3.94 | 3.64
308.15 K | 3.96 | 3.92 | 3.89 | 3.86 | 3.81 | 3.7 | 3.53 | 3.28 | 3
313.15 K | 3.48 | 3.44 | 3.39 | 3.36 | 3.31 | 3.22 | 3.1 | 2.95 | 2.71
318.15 K | 3.05 | 3 | 2.95 | 2.89 | 2.83 | 2.74 | 2.63 | 2.49 | 2.3

CC(CC(C)(C)C)CP(=O)(O)CC(C)CC(C)(C)C (stereo not given) + c1ccccc1
[1], 298.15 K, 101 kPa
Conditions | viscosity [mPa·s]
x1 = 0.0058 | 0.631
x1 = 0.0104 | 0.661
x1 = 0.0122 | 0.678
x2 = 0.1178 | 93.82
x2 = 0.2304 | 71.32
x2 = 0.3732 | 46.06
x2 = 0.5517 | 20.77
x2 = 0.6956 | 8.438
x2 = 0.784 | 4.43
x2 = 0.7966 | 4.061
x2 = 0.8411 | 2.952
x2 = 0.8809 | 2.165
x2 = 0.8838 | 2.106
x2 = 0.9333 | 1.332
x2 = 0.9375 | 1.29
x2 = 0.9656 | 0.94
x2 = 0.9738 | 0.83

CCOCCO + c1ccccc1
viscosity [mPa·s], [1], 101 kPa
Conditions | 298.15 K | 308.15 K
x1 = 0.0585 | 0.632 | 0.548
x1 = 0.1533 | 0.686 | 0.587
x1 = 0.2518 | 0.752 | 0.635
x1 = 0.3637 | 0.841 | 0.7
x1 = 0.4521 | 0.923 | 0.76
x1 = 0.5048 | 0.979 | 0.8
x1 = 0.5525 | 1.034 | 0.839
x1 = 0.6521 | 1.164 | 0.931
x1 = 0.7508 | 1.317 | 1.039
x1 = 0.8521 | 1.505 | 1.17
x1 = 0.9547 | 1.734 | 1.328

CNC(C)=O + c1ccccc1
[1], 308.15 K, 101.33 kPa
Conditions | viscosity [mPa·s]
x1 = 0.0294 | 0.4955
x1 = 0.226 | 0.8005
x1 = 0.3331 | 1.021
x1 = 0.437 | 1.255
x1 = 0.5349 | 1.51
x1 = 0.6329 | 1.78
x1 = 0.7301 | 2.099
x1 = 0.823 | 2.452
x1 = 0.9747 | 3.132

N#C[C-](C#N)C#N.OCCC[n+]1ccccc1 + c1ccsc1
[1], 101 kPa
Conditions | viscosity [mPa·s]
298.15 K, x1 = 0.5955 | 36.55
313.15 K, x1 = 0.9377 | 39.55
